Values quoted from earlier work in patent US20050250805A1, “Pharmaceutical ointment formulations” (Glenmark Pharmaceuticals Limited, priority 2004, published 2005).

Legend:
human subjects = conditions: 50 human subjects, total of 15 applications; according to the manufacturer's brochure

Compound: CN1CCCC1=O [Pharmasolve, N-methyl-2-pyrrolidone]
- Primary dermal irritation / sensitization in repeated insult patch test (human subjects): neither a primary dermal irritant nor a sensitizer
- PII (skin irritation; practically nonirritating to rabbit skin) (rabbit skin): 0.5
